# Reference: paper PMC3365763 (The Journal of Biological Chemistry, 2012)
# Changes are numbered by the printed parent chain.
# What was measured:
# Type in all cases: biochemical
# [1] = biological target: T1, TG2 (transglutaminase-2, transglutaminase type 2) (Homo sapiens, UniProt P21980, R28S)
# T1 sequence (P21980 1-687 R28S): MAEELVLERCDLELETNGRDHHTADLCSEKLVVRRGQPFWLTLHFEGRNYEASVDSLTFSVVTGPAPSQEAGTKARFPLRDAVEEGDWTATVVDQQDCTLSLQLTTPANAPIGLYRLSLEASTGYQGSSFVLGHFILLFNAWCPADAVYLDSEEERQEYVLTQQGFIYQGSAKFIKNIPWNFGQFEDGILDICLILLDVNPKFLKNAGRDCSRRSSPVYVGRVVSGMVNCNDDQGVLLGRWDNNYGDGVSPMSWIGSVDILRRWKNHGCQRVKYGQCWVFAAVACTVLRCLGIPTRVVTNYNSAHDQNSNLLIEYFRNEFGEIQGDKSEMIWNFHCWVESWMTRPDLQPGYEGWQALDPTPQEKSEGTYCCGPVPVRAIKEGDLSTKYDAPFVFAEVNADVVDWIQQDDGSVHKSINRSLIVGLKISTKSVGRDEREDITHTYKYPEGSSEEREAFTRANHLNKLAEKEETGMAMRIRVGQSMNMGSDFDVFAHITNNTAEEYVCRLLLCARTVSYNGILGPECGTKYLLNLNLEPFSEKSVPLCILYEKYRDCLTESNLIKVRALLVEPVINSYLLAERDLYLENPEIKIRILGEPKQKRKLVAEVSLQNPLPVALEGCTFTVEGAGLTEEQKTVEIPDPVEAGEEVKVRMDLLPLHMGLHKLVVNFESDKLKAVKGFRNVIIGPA
# [2] = biological target: T2, TG2 (transglutaminase-2, transglutaminase type 2) (Homo sapiens, UniProt P21980, K202S/K205S)
# T2 sequence (P21980 1-687 K202S/K205S): T1 sequence (P21980 1-687 R28S) with S28R, K202S, K205S
# [3] = biological target: T3, TG2 (transglutaminase-2, transglutaminase type 2) (Homo sapiens, UniProt P21980, R19S)
# T3 sequence (P21980 1-687 R19S): T1 sequence (P21980 1-687 R28S) with R19S, S28R
# [4] = biological target: T4, TG2 (transglutaminase-2, transglutaminase type 2) (Homo sapiens, UniProt P21980, R262S)
# T4 sequence (P21980 1-687 R262S): T1 sequence (P21980 1-687 R28S) with S28R, R262S
smiles,measurement,setting,value
Nc1nc2c(ncn2[C@@H]2O[C@H](COP(=O)(O)OP(=O)(O)OP(=O)(O)O)[C@@H](O)[C@H]2O)c(=O)[nH]1 [GTP],IC50,[1],64 ± 27 µM
same,IC50,[2],145 ± 23 µM
same,IC50,[3],254 ± 8 µM
same,IC50,[4],23 ± 5 µM
